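Exposure lasted 48 hours, with cells grown in 96-well plates and compounds tested at five concentrations. Abbreviation: GI50, concentration required for 50% inhibition of growth. TGI is the concentration that stops growth completely.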
system: DU-145 prostate; assay: inhibition of tumour cell growth, NCI panel, 48 h

With CCOC(=O)C(C#N)C1=CC(=O)C(=O)c2ccc(OC)cc21 (stereo unspecified) as the molecule, how does the TGI read?
The TGI was 38.2 µM.

Which TGI does the source give for Cc1ccc(S(=O)(=O)Nc2ccccc2C=O)cc1 here?
The TGI was > 100 µM.

How did the GI50 turn out when CC[As](CC)SC[C@H](C)C(=O)N1CCC[C@H]1C(=O)O was run?
Its GI50 is 0.0297 µM.

What about the TGI of the same molecule?
The TGI was 0.104 µM.

With NC(N)=N/N=C/c1c(-c2ccsc2)nc2sccn12 as the molecule, how does the GI50 read?
Its GI50 is 16.4 µM.

And the TGI?
The TGI was 31.4 µM.

Which TGI does the source give for C[N+](C)(C)CC1CCCc2ccccc2C1=O (stereo unspecified) here?
Its TGI is > 56.3 µM.

NC(=S)N/N=C/C(=O)O was tested. Which GI50 did it give?
Its GI50 is > 100 µM.

What about the TGI of the same molecule?
Its TGI is > 100 µM.

What does the source list for Cc1ccc(SC2c3ccc(C)cc3Oc3nc(N)c(C#N)c(N)c32)cc1 (stereo unspecified)?
GI50: 1.86 µM; TGI: 3.36 µM

system: HOP-92 NSCLC; assay: inhibition of tumour cell growth, NCI panel, 48 h

With CCOC(=O)c1cnc2c(ccc3[nH]n(C)nc32)c1=O as the molecule, how does the TGI read?
Its TGI is > 100 µM.

With NC(=S)N/N=C(\CC1OC(=O)c2ccccc21)c1ccc(Cl)cc1 (stereo unspecified) as the molecule, how does the TGI read?
The TGI was 91.7 µM.

How did the TGI turn out when COc1ccc2occ(CCC(=O)O)c2c1 was run?
Its TGI is > 100 µM.

For CC1(C)COC(C2(C)C(=O)C=C(c3ccccc3)c3ccccc32)=N1 (stereo unspecified), which TGI is on record?
Its TGI is > 100 µM.

For O=C(Nc1ccn(CCO)c(=O)n1)c1ccccc1, which TGI is on record?
The TGI was > 100 µM.

How did the TGI turn out when O=C1CCC2(c3ccc(Cl)cc3)Nc3ncccc3N12 (stereo unspecified) was run?
Its TGI is > 100 µM.

How did the GI50 turn out when COc1ccc(Sc2[nH]c(C(C)=O)c3ccccc23)cc1 was run?
The GI50 was 2.4 µM.

What about the TGI of the same molecule?
Its TGI is 18.1 µM.

CC12C/C(=C\c3ccccc3)C(=O)C3C1CCCC32 was tested. Which TGI did it give?
The TGI was > 100 µM.

What does the source list for CCCCOC(=O)CNC(=O)OC/C=C/C#CC#C/C=C/COC(=O)NCC(=O)OCCCC?
GI50: > 100 µM; TGI: > 100 µM

O=C1c2ccccc2C(=O)N1CCn1ccc(NC(c2ccccc2)(c2ccccc2)c2ccccc2)nc1=O was tested. Which TGI did it give?
Its TGI is 53.3 µM.

Which TGI does the source give for O=CCC1CCCCC1 here?
Its TGI is > 100 µM.

For CCC12CCCN(Cc3ccccc3)C1c1c(n(C)c3ccccc13)CC2 (stereo unspecified), which TGI is on record?
The TGI was > 253 µM.

How did the GI50 turn out when Cc1cc(Nc2ccc(NC(=O)c3ccc(Nc4ccnc5ccccc45)cc3)cc2)nc(N)n1 was run?
The GI50 was 2.13 µM.

And the TGI?
The TGI was 6.59 µM.

Which GI50 does the source give for COc1cc(-c2oc(=O)ccc2C#Cc2ccccn2)cc(OC)c1OC here?
The GI50 was 2.23 µM.

And the TGI?
The TGI was 25.4 µM.

For CCN(CC)CCCN1CCc2c([nH]c3ccccc23)C1c1cccnc1 (stereo unspecified), which TGI is on record?
Its TGI is > 100 µM.

Which TGI does the source give for Nc1nc(Cl)cc(NCCCCCCCCNc2cc(Cl)nc(N)n2)n1 here?
The TGI was 85.4 µM.

CC(C)N(C(=O)C12C3C4C1C1C4(C#N)C3C12C#N)C(C)C (stereo unspecified) was tested. Which TGI did it give?
Its TGI is > 100 µM.

For O=C1CCC(Cl)=CC2CCCN12 (stereo unspecified), which TGI is on record?
Its TGI is > 100 µM.

With c1ccc2cc(-c3cc4ccccc4s3)ccc2c1 as the molecule, how does the TGI read?
Its TGI is > 100 µM.

How did the TGI turn out when Cc1ccc(S(=O)(=O)Nc2ccccc2C=O)cc1 was run?
Its TGI is 13.1 µM.

For CC(C)C(CCl)NC(=O)c1cccc(C(=O)N[C@H](CCl)C(C)C)n1 (stereo in doubt), which TGI is on record?
Its TGI is > 100 µM.

How did the TGI turn out when CCC(=O)CC(=O)CCC(=O)Nc1cc(C)ccc1C was run?
The TGI was > 100 µM.

What does the source list for CC[As](CC)SC[C@H](C)C(=O)N1CCC[C@H]1C(=O)O?
GI50: 0.0177 µM; TGI: 0.0933 µM

O=c1/c(=C/c2ccccc2[N+](=O)[O-])sc2nnc(-c3ccco3)n12 was tested. Which TGI did it give?
Its TGI is > 100 µM.

Which TGI does the source give for CC(=O)CCn1ncc(Cl)c(Cl)c1=O here?
Its TGI is 34.1 µM.

With C[N+](C)(C)CC1CCCc2ccccc2C1=O (stereo unspecified) as the molecule, how does the TGI read?
Its TGI is 26.7 µM.

For Cc1ccc(SC2c3ccc(C)cc3Oc3nc(N)c(C#N)c(N)c32)cc1 (stereo unspecified), which GI50 is on record?
Its GI50 is 1.45 µM.

And the TGI?
Its TGI is 3.23 µM.

For Cc1cn2c(=O)c3ncn(C4OC(CO)C(O)C4O)c3n(C)c2n1 (stereo unspecified), which TGI is on record?
Its TGI is > 100 µM.

system: UACC-62 melanoma; assay: inhibition of tumour cell growth, NCI panel, 48 h

With CCOC(=O)c1cnc2c(ccc3[nH]n(C)nc32)c1=O as the molecule, how does the TGI read?
The TGI was > 100 µM.

NC(=S)N/N=C(\CC1OC(=O)c2ccccc21)c1ccc(Cl)cc1 (stereo unspecified) was tested. Which TGI did it give?
Its TGI is 47.2 µM.

How did the TGI turn out when COc1ccc2occ(CCC(=O)O)c2c1 was run?
Its TGI is > 100 µM.

With COC(=O)C(C(=O)c1ccccc1)C(C(=O)C(=O)Nc1ccc(OC)cc1OC)C(=O)C(=O)c1ccc(C)cc1 (stereo unspecified) as the molecule, how does the TGI read?
The TGI was > 100 µM.

Which TGI does the source give for CC1(C)COC(C2(C)C(=O)C=C(c3ccccc3)c3ccccc32)=N1 (stereo unspecified) here?
The TGI was > 100 µM.

For O=C(Nc1ccn(CCO)c(=O)n1)c1ccccc1, which TGI is on record?
The TGI was > 100 µM.

For O=C1CCC2(c3ccc(Cl)cc3)Nc3ncccc3N12 (stereo unspecified), which TGI is on record?
The TGI was > 100 µM.

COc1ccc(Sc2[nH]c(C(C)=O)c3ccccc23)cc1 was tested. Which GI50 did it give?
The GI50 was 10.3 µM.

What about the TGI of the same molecule?
Its TGI is 22 µM.

How did the GI50 turn out when C#CCOc1cccc(-c2ncc3cc(NC(=O)CCl)ccc3n2)c1 was run?
The GI50 was 1.52 µM.

And the TGI?
Its TGI is 3.36 µM.

From PubChem BioAssay (NCI)
